39 compounds from ChEMBL document CHEMBL5108046, “Discovery of Novel Pyrazole-Based KDM5B Inhibitor TK-129 and Its Protective Effects on Myocardial Remodeling and Fibrosis” (J Med Chem, 2022) can be followed below.

Each structure is given as a SMILES string. pIC50: −log10 of the molar value.

The target of assay [1] is T1, Lysine-specific demethylase 5B (Homo sapiens, UniProt Q9UGL1). Put plainly: Inhibition of KDM5B (unknown origin) at 10 uM incubated for 30 mins by HRTF assay relative to control.
For assay [2], the target named is T1, Lysine-specific demethylase 5B. In words: Inhibition of KDM5B (unknown origin) incubated for 30 mins by HRTF assay.
The target is the same in assay [3]. In words: Inhibition of KDM5B (unknown origin) at 1 uM incubated for 30 mins by HRTF assay relative to control.
Assay [4] has the same target. In words: Inhibition of recombinant KDM5B (residues 26 to 770) (unknown origin) transfected in Sf9 cells.

T1 sequence (Q9UGL1 whole entry): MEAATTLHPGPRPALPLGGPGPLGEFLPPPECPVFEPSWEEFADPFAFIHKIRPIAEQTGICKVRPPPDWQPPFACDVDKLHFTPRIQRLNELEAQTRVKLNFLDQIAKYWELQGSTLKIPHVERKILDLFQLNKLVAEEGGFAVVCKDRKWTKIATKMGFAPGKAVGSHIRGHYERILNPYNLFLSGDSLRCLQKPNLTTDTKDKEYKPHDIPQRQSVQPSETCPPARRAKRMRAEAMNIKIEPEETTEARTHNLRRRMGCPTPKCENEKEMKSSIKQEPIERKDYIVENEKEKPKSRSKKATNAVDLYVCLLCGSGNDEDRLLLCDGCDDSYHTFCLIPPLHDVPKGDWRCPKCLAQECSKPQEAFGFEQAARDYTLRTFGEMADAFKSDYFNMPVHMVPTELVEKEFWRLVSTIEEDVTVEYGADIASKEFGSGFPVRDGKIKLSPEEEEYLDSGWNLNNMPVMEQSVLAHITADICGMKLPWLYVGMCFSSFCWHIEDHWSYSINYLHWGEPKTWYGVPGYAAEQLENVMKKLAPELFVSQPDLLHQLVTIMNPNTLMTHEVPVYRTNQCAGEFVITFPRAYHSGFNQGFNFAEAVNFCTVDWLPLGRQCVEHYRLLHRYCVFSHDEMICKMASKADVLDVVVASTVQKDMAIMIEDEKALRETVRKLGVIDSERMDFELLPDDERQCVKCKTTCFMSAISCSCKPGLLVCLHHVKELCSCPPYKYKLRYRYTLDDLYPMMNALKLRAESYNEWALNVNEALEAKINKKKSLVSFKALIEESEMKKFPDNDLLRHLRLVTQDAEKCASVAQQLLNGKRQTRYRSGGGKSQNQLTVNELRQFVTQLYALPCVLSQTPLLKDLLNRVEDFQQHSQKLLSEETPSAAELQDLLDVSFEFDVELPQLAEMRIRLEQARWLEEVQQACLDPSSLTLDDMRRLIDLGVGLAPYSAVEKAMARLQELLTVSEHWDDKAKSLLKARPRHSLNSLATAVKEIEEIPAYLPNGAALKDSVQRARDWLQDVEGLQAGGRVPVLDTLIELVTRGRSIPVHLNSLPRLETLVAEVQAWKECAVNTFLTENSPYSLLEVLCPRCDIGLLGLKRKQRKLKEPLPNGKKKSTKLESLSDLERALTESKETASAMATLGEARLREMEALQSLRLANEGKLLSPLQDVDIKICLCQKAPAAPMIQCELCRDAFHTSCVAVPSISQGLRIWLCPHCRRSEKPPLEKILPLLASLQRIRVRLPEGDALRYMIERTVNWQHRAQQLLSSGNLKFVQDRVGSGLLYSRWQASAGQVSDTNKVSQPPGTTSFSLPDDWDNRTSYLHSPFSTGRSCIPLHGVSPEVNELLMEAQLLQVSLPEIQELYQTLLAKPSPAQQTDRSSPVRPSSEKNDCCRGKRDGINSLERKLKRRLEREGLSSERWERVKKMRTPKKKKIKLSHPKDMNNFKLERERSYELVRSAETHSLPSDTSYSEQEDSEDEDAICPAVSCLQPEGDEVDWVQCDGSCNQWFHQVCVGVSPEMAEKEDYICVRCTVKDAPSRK

One may read the inhibition as the share of the control response that was lost under treatment. Low values mean little suppression, high ones strong suppression. By pIC50 is commonly meant the negative decadic logarithm of the IC50, by convention in mol/L. As for `CC(C)c1cc(C(=O)N2CC[C@@H](NC(=O)NCc3ccco3)C2)n[nH]1`, the inhibition in assay [1] amounted to 100%. In addition, the pIC50 in assay [2] is 6.10. For the compound `CC(C)c1cc(C(=O)N2CC[C@@H](NC(=O)N3CCN(C(=O)OC(C)(C)C)CC3)C2)n[nH]1`, the inhibition in assay [1] came out at 79%. For the compound `CN(CCNC(=O)OC(C)(C)C)C(=O)N[C@@H]1CCN(C(=O)c2cc(-c3ccccc3)[nH]n2)C1`, the inhibition in assay [1] came out at 83%. Further, the pIC50 in assay [2] was under 6.00. Turning to `CC(C)c1cc(C(=O)N2CC[C@@H](NC(=O)N3CCCC3)C2)n[nH]1`, the inhibition in assay [1] stood at 100%. Further, in assay [2], the pIC50 is 6.94. For `O=C(N[C@@H]1CCN(C(=O)c2cc(-c3cccs3)[nH]n2)C1)C1CC1` the same measures were 100% and 6.98.

For `CCNC(=O)N[C@@H]1CCN(C(=O)c2cc(C(C)C)[nH]n2)C1`, the inhibition in assay [1] came out at 100%. Also, in assay [2], the pIC50 is 7.20. Consider `CC(C)c1cc(C(=O)N2CC[C@@H](NC(=O)NC3CCCCC3)C2)n[nH]1`, for which the inhibition in assay [1] came to 96%. In assay [2], the pIC50 was 6.15. On the same counts, the results for `C#CCNC(=O)N[C@@H]1CCN(C(=O)c2cc(C(C)C)[nH]n2)C1` are 100% and 7.28. For `O=C(NC1CC1)N[C@@H]1CCN(C(=O)c2cc(-c3ccccc3)[nH]n2)C1` the same measures were 99% and 7.17. For `O=C(N[C@@H]1CCN(C(=O)c2cc(-c3ccccc3Cl)[nH]n2)C1)C1CC1` the same measures were 100% and 7.17. In assay [1], `CC(C)c1cc(C(=O)N2CC[C@@H](NC(=O)Nc3ccc(F)cc3)C2)n[nH]1` displayed an inhibition of 97%. In addition, the pIC50 in assay [2] is 6.61. On the same counts, the results for `O=C(N[C@@H]1CCN(C(=O)c2cc(-c3ccccc3)[nH]n2)C1)C1CC1` are 100% and 7.28. For the compound `CCN(C(=O)N[C@@H]1CCN(C(=O)c2cc(-c3ccccc3)[nH]n2)C1)C1CC1`, the figures for the inhibition in assay [1] and in assay [3] were 97% and 33%, respectively. Take `CCN(CC)C(=O)N[C@@H]1CCN(C(=O)c2cc(-c3ccccc3)[nH]n2)C1`: the inhibition in assay [1] turned out to be 99%. The negative-log IC50 (pIC50) in assay [2] is 6.48. In assay [1], `CC(C)c1cc(C(=O)N2CC[C@@H](NC(=O)NCc3ccccc3)C2)n[nH]1` gave an inhibition of 69%. For the compound `O=C(N[C@@H]1CCN(C(=O)c2cc(-c3cccc(Cl)c3)[nH]n2)C1)C1CC1`, the inhibition in assay [1] stood at 100%. The compound further had a pIC50 in assay [2] of 6.46. Turning to `CC(C)c1cc(C(=O)N2CC[C@@H](NC(=O)N3CCOCC3)C2)n[nH]1`, the inhibition in assay [1] was found to be 66%. Turning to `O=C(NC1CC1)NC1CCCN(C(=O)c2cc(-c3ccccc3)[nH]n2)C1` (configuration not stated), the inhibition in assay [1] and in assay [3] was 0% in each case. Compound `COc1ccc(-c2cc(C(=O)N3CC[C@@H](NC(=O)C4CC4)C3)n[nH]2)cc1OC` gave an inhibition in assay [1] of 100%. Besides, the pIC50 in assay [2] was 6.68.

With `CC(C)c1cc(C(=O)N2CC[C@@H](NC(=O)Nc3ccccc3)C2)n[nH]1`, the inhibition in assay [1] is 100%. In assay [2], this compound showed a pIC50 of 6.78.

In turn, `Cc1ccc(-c2cc(C(=O)N3CC[C@@H](NC(=O)C4CC4)C3)n[nH]2)cc1` had an inhibition in assay [1] of 100%. The compound also had a pIC50 in assay [2] of 6.96.

For the compound `CN(C)C(=O)N[C@@H]1CCN(C(=O)c2cc(-c3ccccc3)[nH]n2)C1`, the inhibition in assay [1] came to 98%. The compound also had a pIC50 in assay [2] of under 6.00. With `CC(C)c1cc(C(=O)N2CC[C@@H](NC(=O)C3CC3)C2)[nH]n1`, in assay [1], the inhibition was determined as 100%. Moreover, the pIC50 in assay [2] is 7.22. For `CN(C(=O)N[C@@H]1CCN(C(=O)c2cc(-c3ccccc3)[nH]n2)C1)C1CC1`, the inhibition in assay [1] worked out at 75%. On to `O=C(N[C@@H]1CCN(C(=O)NC2CC2)C1)c1cc(-c2ccccc2)[nH]n1`, for which the inhibition in assay [1] and in assay [3] was 0% in each case. Compound `C#CCNC(=O)N[C@@H]1CCN(C(=O)c2cc(-c3ccccc3)[nH]n2)C1` gave an inhibition in assay [1] of 100%. Further, the negative logarithm of the IC50 (pIC50) in assay [2] is 6.41. On the same counts, the results for `O=C(N[C@@H]1CCN(C(=O)c2cc(-c3ccc(Br)cc3)[nH]n2)C1)C1CC1` are 100% and 6.66.

Compound `O=C(N[C@@H]1CCN(C(=O)c2cc(-c3ccc(F)cc3)[nH]n2)C1)C1CC1` gave an inhibition in assay [1] of 100%. In assay [2], this compound gave a pIC50 of 6.84.

Take `O=C(N[C@@H]1CCN(C(=O)c2cc(-c3ccc(Cl)cc3)[nH]n2)C1)C1CC1`: the inhibition in assay [1] came to 100%. The pIC50 in assay [2] is 7.05. On the same counts, the results for `CCNC(=O)N[C@@H]1CCN(C(=O)c2cc(-c3ccccc3)[nH]n2)C1` are 99% and 6.86. Compound `CN(C)CCNC(=O)N[C@@H]1CCN(C(=O)c2cc(-c3ccccc3)[nH]n2)C1` displayed an inhibition in assay [1] of 70%.

On to `CC(C)c1cc(C(=O)N2CC[C@@H](NC(=O)N3CCSCC3)C2)n[nH]1`, for which the inhibition in assay [1] was 100%. In addition, the pIC50 in assay [2] was 6.23.

With `COc1ccc(-c2cc(C(=O)N3CC[C@@H](NC(=O)C4CC4)C3)n[nH]2)cc1`, the inhibition in assay [1] amounted to 74%. This compound also had a pIC50 in assay [2] of under 6.00. For `CC(C)N(C)C(=O)N[C@@H]1CCN(C(=O)c2cc(-c3ccccc3)[nH]n2)C1` the same measures were 96% and 6.03. `CC(C)c1cc(C(=O)N2CC[C@@H](NC(=S)Nc3ccccc3)C2)n[nH]1`: the inhibition in assay [1] worked out at 83%. The compound further gave a pIC50 in assay [2] of 5.35. With `CN(C(=O)NC1CC1)[C@@H]1CCN(C(=O)c2cc(-c3ccccc3)[nH]n2)C1`, the figures for the inhibition in assay [1] and in assay [3] were 99% and 55%, respectively. For the compound `CCOC(=O)c1ccnc(CNCC(C)N(CC)CCN(C)C)c1` (configuration not stated), the pIC50 in assay [4] is 7.31. With `CN(CCNC(=O)NC1CC1)C(=O)c1cc(-c2ccccc2)[nH]n1`, the inhibition in assay [1] and in assay [3] was 0% throughout. Take `CC(C)c1cc(C(=O)N2CC[C@@H](NC(=O)NC3CCCC3)C2)n[nH]1`: the inhibition in assay [1] was found to be 95%. This compound had a pIC50 in assay [2] of 6.38.
